Results from patent US20250346593A1, “IMIDAZO(1,2-1)PYRIDINE DERIVATIVES AS RIPK2 INHIBITORS” (Interline Therapeutics, Inc., priority 2022, published 2025).
Read-outs that look alike come from different tables or passages of the source.

Experiments:
[1] = target: GST-RIPK2 fusion protein (human RIPK2 amino acids 1-310) (Homo sapiens (Human), UniProt O43353); experiment: RIPK2 binding competition assay (TR-FRET, Tracer 199)
[2] = tested on: NF-κB pathway (SEAP) in THP1-Dual cells; experiment: THP-1 Dual cell SEAP assay (L18-MDP stimulated); assay type: cell-based; settings: Homo sapiens, THP1-Dual, read-out: NFkB THP1 IC50
[3] = read-out: RIPK2 IC50, RIPK2 binding competition assay

Sequence of GST-RIPK2 fusion protein (human RIPK2 amino acids 1-310) (O43353 1-310): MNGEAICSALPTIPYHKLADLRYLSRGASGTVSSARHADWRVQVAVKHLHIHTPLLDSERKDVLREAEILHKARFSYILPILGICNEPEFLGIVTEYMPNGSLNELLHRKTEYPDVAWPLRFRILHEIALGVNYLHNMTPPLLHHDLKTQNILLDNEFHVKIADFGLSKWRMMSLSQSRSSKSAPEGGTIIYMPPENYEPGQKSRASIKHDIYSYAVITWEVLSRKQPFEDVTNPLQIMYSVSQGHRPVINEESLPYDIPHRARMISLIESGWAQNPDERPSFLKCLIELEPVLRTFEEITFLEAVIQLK

Structure (SMILES)	IC50 [1, 3] [nM]	IC50 [2] [nM]	IC50 [1] [nM]
COc1cc2ncc(-c3ccc(NS(C)(=O)=O)nc3)n2cc1S(=O)(=O)C(C)(C)C [Example 148, N-(5-(6-(tert-butylsulfonyl)-7-methoxyimidazo[1,2-a]pyridin-3-yl)pyridin-2-yl)methanesulfonamide]	> 20	> 1000	–
COc1cc2ncc(-c3ccc(O)nc3)n2cc1S(=O)(=O)C(C)(C)C [Example 150, 5-(6-(tert-butylsulfonyl)-7-methoxyimidazo[1,2-a]pyridin-3-yl)pyridin-2-ol]	> 20	> 1000	–
COc1cc2ncc(-c3cccc(S(C)(=O)=O)c3)n2cc1S(=O)(=O)C(C)(C)C [Example 151, 6-(tert-butylsulfonyl)-7-methoxy-3-(3-(methylsulfonyl)phenyl) imidazo[1,2-a]pyridine]	> 20	> 1000	–
COc1cc2ncc(-c3ccc(S(N)(=O)=O)cc3)n2cc1S(=O)(=O)C(C)(C)C [Example 152, 4-(6-(tert-butylsulfonyl)-7-methoxyimidazo[1,2-a]pyridin-3-yl)benzenesulfonamide]	> 20	> 1000	–
COc1cc2ncc(-c3cccc(S(N)(=O)=O)c3)n2cc1S(=O)(=O)C(C)(C)C [Example 153, 3-(6-(tert-butylsulfonyl)-7-methoxyimidazo[1,2-a]pyridin-3-yl)benzenesulfonamide]	> 20	> 1000	–
COc1cc2ncc(-c3cc(F)c(N)nc3F)n2cc1S(=O)(=O)C(C)(C)C(F)F [Example 154, 5-(6-((1,1-difluoro-2-methylpropan-2-yl)sulfonyl)-7-methoxyimidazo[1,2-a]pyridin-3-yl)-3,6-difluoropyridin-2-amine]	–	50 to 250	2.5 to 20
CCOc1cc2ncc(-c3cc(F)c(N)nc3C)n2cc1S(=O)(=O)C(C)C [Example 155, 5-(7-ethoxy-6-(isopropylsulfonyl)imidazo [1,2-a]pyridin-3-yl)-3-fluoro-6-methylpyridin-2-amine]	> 20	> 1000	–
COc1cc2ncc(-c3cccc(CS(C)(=O)=O)c3)n2cc1S(=O)(=O)C(C)(C)C [Example 156, 6-(tert-butylsulfonyl)-7-methoxy-3-(3-((methylsulfonyl)methyl)phenyl)imidazo[1,2-a]pyridine]	> 20	> 1000	–
COc1cc2ncc(-c3cc(N)cc(F)c3)n2cc1S(=O)(=O)C(C)(C)C [Example 157, 3-(6-(tert-butylsulfonyl)-7-methoxyimidazo[1,2-a]pyridin-3-yl)-5-fluoroaniline]	–	50 to 250	2.5 to 20
COc1cc2ncc(-c3ccc(OC)c(Cl)n3)n2cc1S(=O)(=O)C(C)(C)C [Example 158, 6-(tert-butylsulfonyl)-3-(6-chloro-5-methoxypyridin-2-yl)-7-methoxyimidazo[1,2-a]pyridine]	> 20	> 1000	–
CCCS(=O)(=O)Nc1nc(-c2cnc3cc(OC)c(S(=O)(=O)C(C)(C)C)cn23)ccc1CC [Example 160, N-(6-(6-(tert-butylsulfonyl)-7-methoxyimidazo[1,2-a]pyridin-3-yl)-3-ethylpyridin-2-yl)propane-1-sulfonamide]	> 20	> 1000	–
CCCS(=O)(=O)Nc1cc(OC)cc(-c2cnc3cc(OC)c(S(=O)(=O)C(C)(C)C)cn23)n1 [Example 161, N-(6-(6-(tert-butylsulfonyl)-7-methoxyimidazo[1,2-a]pyridin-3-yl)-4-methoxypyridin-2-yl)propane-1-sulfonamide]	–	250 to 1000	2.5 to 20
CNc1ccnc(-c2cnc3cc(OC)c(S(=O)(=O)C(C)(C)C)cn23)c1 [Example 162, 2-(6-(tert-butylsulfonyl)-7-methoxyimidazo[1,2-a]pyridin-3-yl)-N-methylpyridin-4-amine]	> 20	> 1000	–
CCCS(=O)(=O)Nc1nc(-c2cnc3cc(OC)c(S(=O)(=O)C(C)(C)C)cn23)ccc1C [Example 163, N-(6-(6-(tert-butylsulfonyl)-7-methoxyimidazo[1,2-a]pyridin-3-yl)-3-methylpyridin-2-yl)propane-1-sulfonamide]	> 20	> 1000	–
COc1cc2ncc(-c3cnc(N)c(F)c3F)n2cc1S(=O)(=O)C(C)(C)C [Example 164, 5-(6-(tert-butylsulfonyl)-7-methoxyimidazo[1,2-a]pyridin-3-yl)-3,4-difluoropyridin-2-amine]	> 20	> 1000	–
COc1cc2ncc(-c3csc(N)n3)n2cc1S(=O)(=O)C(C)(C)C [Example 165, 4-(6-(tert-butylsulfonyl)-7-methoxyimidazo[1,2-a]pyridin-3-yl)thiazol-2-amine]	–	250 to 1000	2.5 to 20
COc1cc2ncc(-c3cnc(N)s3)n2cc1S(=O)(=O)C(C)(C)C [Example 166, 5-(6-(tert-butylsulfonyl)-7-methoxyimidazo[1,2-a]pyridin-3-yl)thiazol-2-amine]	> 20	> 1000	–

Structure (SMILES)	IC50 [1, 3] [nM]	IC50 [2] [nM]	IC50 [1] [nM]
COc1cc2ncc(-c3cc(F)c(N)nc3O)n2cc1S(=O)(=O)C(C)(C)C [Example 167, 6-amino-3-(6-(tert-butylsulfonyl)-7-methoxyimidazo[1,2-a]pyridin-3-yl)-5-fluoropyridin-2-ol]	> 20	> 1000	–
COc1ccc(CNc2cc(-c3cnc4ccc(S(=O)(=O)C(C)(C)C)cn34)cc(F)n2)cc1 [Example 168, 4-(6-(tert-butylsulfonyl)imidazo[1,2-a]pyridin-3-yl)-6-fluoro-N-(4-methoxybenzyl)pyridin-2-amine]	–	250 to 1000	1 to 2.5
CC(C)(C)S(=O)(=O)c1ccc2ncc(-c3cc(F)nc(NCCC4(O)CCC4)c3)n2c1 [Example 171, 1-(2-((4-(6-(tert-butylsulfonyl)imidazo [1,2-a]pyridin-3-yl)-6-fluoropyridin-2-yl)amino)ethyl)cyclo-butan-1-ol]	–	< 50	1 to 2.5
CC(C)(O)CCNc1cc(-c2cnc3ccc(S(=O)(=O)C(C)(C)C)cn23)cc(F)n1 [Example 174, 4-((4-(6-(tert-butylsulfonyl)imidazo [1,2-a]pyridin-3-yl)-6-fluoropyridin-2-yl)amino)-2-methylbutan-2-ol]	–	50 to 250	2.5 to 20
COc1cc2ncc(-c3cc(F)nc(NCc4ccccc4)c3)n2cc1S(=O)(=O)C(C)(C)C [Example 175, N-benzyl-4-(6-(tert-butylsulfonyl)-7-methoxyimidazo[1,2-a]pyridin-3-yl)-6-fluoropyridin-2-amine]	–	< 50	< 1
COc1cc2ncc(-c3cc(F)nc(NCCC(C)(C)OC)c3)n2cc1S(=O)(=O)C(C)(C)C [Example 176, 4-(6-(tert-butylsulfonyl)-7-methoxyimidazo[1,2-a]pyridin-3-yl)-6-fluoro-N-(3-methoxy-3-methylbutyl)pyridin-2-amine]	< 1	< 50	–
COc1cc2ncc(-c3cc(F)nc(NC(C)C)c3)n2cc1S(=O)(=O)C(C)(C)C [Example 178, 4-(6-(tert-butylsulfonyl)-7-methoxyimidazo[1,2-a]pyridin-3-yl)-6-fluoro-N-isopropylpyridin-2-amine]	< 1	< 50	–
CNc1cc(-c2cnc3cc(OC)c(S(=O)(=O)C(C)(C)C)cn23)cc(F)n1 [Example 179, 4-(6-(tert-butylsulfonyl)-7-methoxyimidazo[1,2-a]pyridin-3-yl)-6-fluoro-N-methylpyridin-2-amine]	< 1	< 50	–
COc1cc2ncc(-c3cc(F)nc(NC4CCC4)c3)n2cc1S(=O)(=O)C(C)(C)C [Example 180, 4-(6-(tert-butylsulfonyl)-7-methoxyimidazo[1,2-a]pyridin-3-yl)-N-cyclobutyl-6-fluoropyridin-2-amine]	< 1	50 to 250	–
CCCNc1cc(-c2cnc3cc(OC)c(S(=O)(=O)C(C)(C)C)cn23)cc(F)n1 [Example 181, 4-(6-(tert-butylsulfonyl)-7-methoxyimidazo[1,2-a]pyridin-3-yl)-6-fluoro-N-propylpyridin-2-amine]	< 1	< 50	–
COc1cc2ncc(-c3cc(F)nc(NCCCC(C)(C)O)c3)n2cc1S(=O)(=O)C(C)(C)C [Example 182, 5-((4-(6-(tert-butylsulfonyl)-7-methoxyimidazo[1,2-a]pyridin-3-yl)-6-fluoropyridin-2-yl)amino)-2-methylpentan-2-ol]	< 1	< 50	–
COc1cc2ncc(-c3cc(F)nc(NCCCO)c3)n2cc1S(=O)(=O)C(C)(C)C [Example 183, 3-((4-(6-(tert-butylsulfonyl)-7-methoxyimidazo[1,2-a]pyridin-3-yl)-6-fluoropyridin-2-yl)amino)propan-1-ol]	< 1	< 50	–
COc1cc2ncc(-c3cc(F)nc(NCc4ccc(=O)[nH]c4)c3)n2cc1S(=O)(=O)C(C)(C)C [Example 184, 5-(((4-(6-(tert-butylsulfonyl)-7-methoxyimidazo[1,2-a]pyridin-3-yl)-6-fluoropyridin-2-yl)amino)methyl) pyridin-2(1H)-one]	< 1	50 to 250	–
COc1cc2ncc(-c3cc(F)nc(NCC4CCC(=O)NC4)c3)n2cc1S(=O)(=O)C(C)(C)C (stereo not drawn) [Example 185, 5-(((4-(6-(tert-butylsulfonyl)-7-methoxyimidazo[1,2-a]pyridin-3-yl)-6-fluoropyridin-2-yl)amino)methyl) piperidin-2-one]	< 1	< 50	–
COc1cc2ncc(-c3cc(F)nc(N(C)C)c3)n2cc1S(=O)(=O)C(C)(C)C [Example 186, 4-(6-(tert-butylsulfonyl)-7-methoxyimidazo[1,2-a]pyridin-3-yl)-6-fluoro-N,N-dimethylpyridin-2-amine]	< 1	< 50	–
COc1cc2ncc(-c3cc(F)nc(NCC4CCNC(=O)C4)c3)n2cc1S(=O)(=O)C(C)(C)C (stereo not drawn) [Example 188, 4-(((4-(6-(tert-butylsulfonyl)-7-methoxyimidazo[1,2-a]pyridin-3-yl)-6-fluoropyridin-2-yl)amino)methyl) piperidin-2-one]	< 1	< 50	–
